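Protocol summary: plate cells (96-well), add compound at 5 concentrations, incubate 48 h, interpolate endpoints linearly. GI50 marks 50% less growth.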 Active and inactive are the calls of the source. Rule as the data show it: active = GI50 up to about 1.1 µM and inactive = higher.
Assays:
Experiment in all cases: NCI-60 cell line screen, 48 h
NCI/ADR-RES = tested on: NCI/ADR-RES
SW-620 = tested on: SW-620
SK-MEL-28 = tested on: SK-MEL-28
A549 = tested on: A549
SNB-19 = tested on: SNB-19
T47D = tested on: T47D
PC-3 = tested on: PC-3
OVCAR-4 = tested on: OVCAR-4
UACC-62 = tested on: UACC-62
NCI-H460 = tested on: NCI-H460
CCRF-CEM = tested on: CCRF-CEM
IGROV-1 = tested on: IGROV-1
SK-MEL-5 = tested on: SK-MEL-5
MDA-MB-231 = tested on: MDA-MB-231
MOLT-4 = tested on: MOLT-4
SF-268 = tested on: SF-268
DU-145 = tested on: DU-145
SR = tested on: SR
CAKI-1 = tested on: CAKI-1
SNB-75 = tested on: SNB-75

SMILES	GI50 (NCI/ADR-RES)	GI50 (SW-620)	GI50 (SK-MEL-28)	GI50 (A549)	GI50 (SNB-19)	GI50 (T47D)	GI50 (PC-3)	GI50 (OVCAR-4)	GI50 (UACC-62)	GI50 (NCI-H460)	GI50 (CCRF-CEM)	GI50 (IGROV-1)	GI50 (SK-MEL-5)	GI50 (MDA-MB-231)	GI50 (MOLT-4)	GI50 (SF-268)	GI50 (DU-145)	GI50 (SR)	GI50 (CAKI-1)	GI50 (SNB-75)
Cc1cc(O)c(C(C)C)cc1/N=C/c1ccccc1O	3.12 µM (inactive)	1.98 µM (inactive)	15.1 µM (inactive)	18.5 µM (inactive)	17.5 µM (inactive)	0.36 µM (active)	5.08 µM (inactive)	2.41 µM (inactive)	8.91 µM (inactive)	5.3 µM (inactive)	0.0242 µM (active)	8.43 µM (inactive)	6.08 µM (inactive)	1.73 µM (inactive)	0.301 µM (active)	6.21 µM (inactive)	5.53 µM (inactive)	1.15 µM (inactive)	12.1 µM (inactive)	–
COc1cc(/C=C/C(=O)c2ccc(NS(=O)(=O)c3cc([N+](=O)[O-])ccc3C)cc2)cc(OC)c1OC	8.41 µM (inactive)	4.49 µM (inactive)	8.43 µM (inactive)	3.81 µM (inactive)	3.85 µM (inactive)	12.1 µM (inactive)	5.9 µM (inactive)	3.19 µM (inactive)	–	–	2.2 µM (inactive)	3.88 µM (inactive)	4.18 µM (inactive)	2.59 µM (inactive)	1.85 µM (inactive)	–	3.13 µM (inactive)	1.82 µM (inactive)	3.74 µM (inactive)	4.39 µM (inactive)
Oc1ccc(/C=N/NC(=S)Nc2cccnc2)nc1	2.46 µM (inactive)	4.82 µM (inactive)	6.18 µM (inactive)	38.3 µM (inactive)	22.7 µM (inactive)	8.69 µM (inactive)	> 22 µM (inactive)	> 76.6 µM (inactive)	6.97 µM (inactive)	–	3.27 µM (inactive)	14.7 µM (inactive)	9.59 µM (inactive)	2.32 µM (inactive)	2.8 µM (inactive)	1.39 µM (inactive)	3.72 µM (inactive)	0.134 µM (active)	20.7 µM (inactive)	19.6 µM (inactive)
C=C1C2CCC3C4(C)CCCC(C)(C(=O)O)C4CCC3(C2)C1OC(=O)/C(C)=C/C (centres undefined)	21.1 µM (inactive)	61.7 µM (inactive)	51.6 µM (inactive)	35.9 µM (inactive)	–	43 µM (inactive)	31.3 µM (inactive)	41.6 µM (inactive)	25.6 µM (inactive)	34.6 µM (inactive)	53.2 µM (inactive)	27.1 µM (inactive)	27.4 µM (inactive)	20.9 µM (inactive)	–	38.7 µM (inactive)	42.3 µM (inactive)	2.98 µM (inactive)	26.2 µM (inactive)	70.8 µM (inactive)
CC1(O)CC23CC1CCC2(C)C12CCCC(C)(C(=O)O1)C2CC3O (centres undefined)	> 100 µM (inactive)	> 100 µM (inactive)	> 100 µM (inactive)	> 100 µM (inactive)	> 100 µM (inactive)	> 100 µM (inactive)	> 100 µM (inactive)	> 100 µM (inactive)	> 100 µM (inactive)	> 100 µM (inactive)	> 100 µM (inactive)	> 100 µM (inactive)	> 100 µM (inactive)	> 100 µM (inactive)	–	> 100 µM (inactive)	> 100 µM (inactive)	> 100 µM (inactive)	> 100 µM (inactive)	> 100 µM (inactive)
Oc1ccc2cc(Br)ccc2c1-c1c(O)ccc2ccc(Br)cc12	13.6 µM (inactive)	11.7 µM (inactive)	18.7 µM (inactive)	15.2 µM (inactive)	15.4 µM (inactive)	12.7 µM (inactive)	12.6 µM (inactive)	–	17.3 µM (inactive)	4.12 µM (inactive)	13 µM (inactive)	8.3 µM (inactive)	23 µM (inactive)	10 µM (inactive)	4.85 µM (inactive)	20 µM (inactive)	15.8 µM (inactive)	14.3 µM (inactive)	18.8 µM (inactive)	4.73 µM (inactive)
CCCCCCCCCCC(O)C1CCC(C2CCC(C(O)CCCCC(O)CCCCCC(O)CC3=CC(C)OC3=O)O2)O1 (centres undefined)	2.46 µM (inactive)	> 25 µM (inactive)	> 25 µM (inactive)	> 20.9 µM (inactive)	> 25 µM (inactive)	> 11.8 µM (inactive)	> 25 µM (inactive)	> 25 µM (inactive)	1.2 µM (inactive)	6.93 µM (inactive)	–	3.72 µM (inactive)	0.258 µM (active)	> 25 µM (inactive)	2.97 µM (inactive)	4 µM (inactive)	9.91 µM (inactive)	0.0218 µM (active)	> 25 µM (inactive)	5.16 µM (inactive)
CC(=O)O[C@H]1C(=O)[C@@]2(C)C([C@H](OC(=O)c3ccccc3)[C@]3(O)C[C@H](OC(=O)[C@H](O)[C@@H](NC(=O)c4ccc(Cl)cc4)c4ccccc4)C(C)=C1C3(C)C)C1(OC(C)=O)CO[C@@H]1C[C@@H]2O (some centres undefined)	14.9 µM (inactive)	0.0569 µM (active)	0.114 µM (active)	0.168 µM (active)	0.137 µM (active)	0.82 µM (active)	0.0615 µM (active)	7.21 µM (inactive)	0.0435 µM (active)	0.0668 µM (active)	< 0.01 µM (active)	0.0946 µM (active)	< 0.01 µM (active)	0.265 µM (active)	21.3 µM (inactive)	0.156 µM (active)	0.0865 µM (active)	–	3.06 µM (inactive)	0.021 µM (active)

Reference: ChEMBL document CHEMBL1201862, “PubChem BioAssay data set” (2004)
